Test results published in patent US6426080B1, “Cosmetic preparation of active substances with high protection factor against free radicals” (Coty, B.V., priority 1998, dated 2002).

Columns and labels:
[1] = standard antioxidants, known parameter; cited from earlier work
[2] = activity against free radicals compared with SOD; type: biochemical
Description: The Quebracho bark extract according to the invention or its hydrolysis product has a very high portion of proantho-cyanidines representing condensed tannins. […] The activity against free radicals was compared with that of SOD and found to be 42% for a 1 percent by weight solution of the extract (SOD 4%), 83% for a 2.5% by weight solution (SOD 15%)and 100% for a 5% by weight solution (SOD 38%). Preferably the extract (a) contains at least 95 percent by weight of proanthocyanidine oligomers and up to 5 percent by weight of gallic acid, in particular at least 99 percent by weight of proanthocyanidine oligomers and up to 1 percent by weight of gallic acid.

Row | Molecule | radical protection factor (RPF) [1] | activity against free radicals ([2]; 1 percent by weight solution) [%] | activity against free radicals ([2]; 2.5% by weight solution) [%] | activity against free radicals ([2]; 5% by weight solution) [%]
1 | CC1=C(/C=C/C(C)=C/C=C/C(C)=C/CO)C(C)(C)CCC1 [all-trans-retinole] | 827 ×10^14 radicals/mg | – | – | –
2 | CC(=O)Oc1c(C)c(C)c2c(c1C)CCC(C)(CCC[C@H](C)CCC[C@H](C)CCCC(C)C)O2 (stereo partly shown) [a-tocopherol acetate] | about 48 ×10^14 radicals/mg | – | – | –
3 | CC(=O)OC/C=C(C)/C=C/C=C(C)/C=C/C1=C(C)CCCC1(C)C [all-trans retinal acetate] | 196 ×10^14 radicals/mg | – | – | –
4 | superoxide dismutase [SOD] | – | 4 | 15 | 38
5 | Cc1c(C)c2c(c(C)c1O)CCC(C)(CCCC(C)CCCC(C)CCCC(C)C)O2 (racemic) [DL-α-tocopherol] | 41200 ×10^14 radicals/mg | – | – | –
